The subject of one assay is L. lactis. The conditions noted are these: cited from earlier work.
For assay [1], the system named is folate overproducing L. plantarum strains. Put plainly: Growth rate of folate overproducing L. plantarum strains (pNZ7019, pNZ7021) on modified CDM with methotrexate. It is filed as cell-based, Lactobacillus plantarum. The conditions noted are these: 2.5 mg/L MTX. Here is the method:
(§1) Wild type L. plantarum WCFS1 strains and its derivatives were grown at 37° C. on Chemically Defined Media (CDM), containing 19 g/L β-phosphoglycerate (6) or modified CDM. In this modified CDM, glycine, inosine, orotic acid, thymidine, guanine, adenine, uracil and xantine were omitted from the normal CDM. Additionally […] chloroamphenicol was added to all the media used. Methotrexate (Sigma, […]) was added to both types of CDM, in concentrations ranging from 0 to 10 mg/l.
(§2) Microtiter plates were used to determine the growth rate of the three L. plantarum strains harbouring the different vectors. The growth of the three strains was monitored in a 96 well microtiter plate for 35 hours using a spectrophotometer (SPECTRAmax®, Molecular Devices, Sunnyvale, Calif., USA). The growth was tested on the two types of media, and each construct was analyzed in triplicate on both media for the following MTX concentrations: 0, 0.3125, 0.625, 1.25 and 2.5 mg/L.

For assay [2], the system named is L. plantarum strains (wild type, pNZ7019, pNZ7021). Put plainly: Growth rate of L. plantarum strains on CDM with folate dependent metabolites and methotrexate. It is filed as cell-based, Lactobacillus plantarum. Conditions: 0 to 2.5 mg/L MTX. Here is the method: as §1, §2
Assay [3] deals with wild type L. plantarum WCFS1. As to the kind of experiment: Growth rate of wild type L. plantarum on modified CDM (lacking folate dependent metabolites) with methotrexate. The format is cell-based, Lactobacillus plantarum. The conditions noted are these: for growth inhibition of the wild type strain: modified CDM. Here is the method: as §1, §2

For the molecule `COc1cc(Cc2cnc(N)nc2N)cc(OC)c1OC` [trimethoprim], the sensitivity to antifolate entry in the assay on L. lactis is on record as “insensitive”.
Consider `CN(Cc1cnc2nc(N)nc(N)c2n1)c1ccc(C(=O)N[C@@H](CCC(=O)O)C(=O)O)cc1` [MTX, methotrexate], for which, in the assay with L. lactis, the sensitivity to antifolate entry is recorded as “insensitive”. Moreover, the “growth of the folate overproducing strains” value in assay [1] is listed as “grew well”. In assay [2], the “growth inhibition in the presence of folate dependent metabolites” value is “none of the tested strains was significantly inhibited”. Besides, the “growth inhibition of the wild type strain” value in assay [3] (2.5 mg/L MTX) was “complete growth inhibition”; in assay [3] (between 0 and 2.5 mg/L MTX), “dose dependent growth inhibition”. Further, the “growth rate (μ) of the wild type” value in assay [3] (1.25, 1.5, 2.0 and 2.5 mg/l MTX, medium lacking folate dependent metabolites) is below 0.05 h⁻¹.
